Assay results: patent publication US12583859B2, “PRMT5 inhibitors and uses thereof” (California Institute of Technology, priority 2019, dated 2026)

Legend:
PRMT5 = target: T1, PRMT5 (Homo sapiens, UniProt O14744); assay: PRMT5 Enzymatic Inhibition Assay (chemiluminescence immunoassay of histone H4 methylation); format: biochemical; conditions: 1 hour at room temperature; 10 μM to 1 nM
T1 construct: purchased BPS Biosciences 52002L
Description: A chemiluminescence immunoassay (CLIA) measuring the amount of PRMT5-mediated histone methylation was performed in a 96-well plate format according to the manufacturer's protocol (BPS Biosciences, Cat #52002L). A 96-well plate precoated with histone H4 peptide was rehydrated prior to use. A master mix containing PRMT5 substrate S-adenosylmethionine, reaction buffer, and purified PRMT5 enzyme was added to create reaction-competent wells. Wells lacking either S-adenosylmethionine substrate or PRMT5 enzyme were created as negative controls. 10 test concentrations, ranging from 100 μM to 10 nM, of the test compound were prepared using a 1:3 serial dilution in dH2O. 5 μL of each test concentration was added into a reaction-competent well. 5 μL of a 1% DMSO aqueous solution lacking inhibitor was added into negative control wells and into a reaction-competent well, creating a positive control well. The final reaction volume in each well was 50 μL, and the final concentration of the test compound in each well ranged from 10 μM to 1 nM. A known inhibitor of PRMT5, EPZ015666, was tested in parallel reaction wells as an assay validation control. The 96-well plate was incubated for 1 hour at room temperature.
Upon completion of the incubation, the reaction supernatant in each well was discarded. Wells were washed with 1×TBST and incubated in blocking buffer for 1 hour. The wells were incubated with a primary antibody recognizing methylated Arg3 residues on Histone H4 for 1 hour. The wells were washed with 1×TBST again and subsequently incubated with an HRP-conjugated secondary antibody for 30 minutes. The wells were washed again with 1×TBST, and equal parts of the chemiluminescence reagents were added into each well. Quantification of luminescence was measured in a plate reader.
Luminescence values were normalized against the positive and negative controls to convert the data into % PRMT5 activity. An inhibitor concentration-dependent curve was plotted against % PRMT5 activity and am IC50 value was determined for each compound.

[1] = test system: drug-sensitive cell lines of Table 4; assay: Cell Line Growth Retardation Assay, average maximum effect in sensitive cohort; format: cell-based, Human; conditions: average maximum growth inhibition over sensitive cohort of Table 4; 6 days; up to 1 μM
Description: (§1) Cells were seeded at densities of 1,000-5,000 cells per well in 48-well tissue culture plates. After a 24 h rest period, cells were treated with compound at 1 μM, 0.2 μM, 0.04 μM, 0.008 μM, 0.0016 μM, and 0.00032 μM. A group of cells were treated with the vehicle in which the compound was prepared and served as a control. Prior to treatment, cells were counted and this count was used as a baseline for the calculation of growth inhibition. The cells were grown in the presence of compounds for 6 days and were counted on day 6. All cell counting was performed using a Synentec Cellavista plate imager. Growth inhibition was calculated as a ratio of cell population doublings in the presence of compound versus the absence of compound and expressed as the maximum percentage growth inhibition achieved across the range of tested concentrations of the compound (“maximum effect” or “ME”) calculated by fitting curves to data points from each dose-response assay using the Proc NLIN function in SAS for Windows version 9.2 (SAS Institute, Inc.).
(§2) Human cancer cell lines were grouped as “sensitive” or “resistant” to PRMT5 inhibition based on whether their growth was retarded by JNJ-64619178 (i.e., (1S,2R,3R,5R)-3-(2-(2-amino-3-bromoquinolin-7-yl)ethyl)-5-(4-amino-7H-pyrrolo[2,3-d]pyrimidin-7-yl)cyclopentane-1,2-diol) (data not shown; see Table 4). These sensitive and resistant cohorts were interrogated for response to each compound, and ME was calculated for each cell line using the same technique described above. Average MEs for the sensitive and resistant cohorts were calculated as arithmetic means of the group. “A” represents a percent of maximum effect of 60% or greater, “B” represents a percent of maximum effect of 30% to 59%, and “C” represents a percent of maximum effect of 29% or lower.

[2] = test system: drug-resistant cell lines of Table 4; assay: Cell Line Growth Retardation Assay, average maximum effect in resistant cohort; format: cell-based, Human; conditions: average maximum growth inhibition over resistant cohort of Table 4; 6 days; up to 1 μM
Description: as §1, §2

[3] = Caco-2 Assay (Papp A to B); format: in vitro ADME; conditions: human, pH 7.4
Description: The degree of bi-directional human intestinal permeability for compounds was estimated using a Caco-2 cell permeability assay. Caco-2 cells were seeded onto polyethylene membranes in 96-well plates. The growth medium was refreshed every 4 to 5 days until cells formed a confluent cell monolayer. HBSS with 10 mM HEPES at pH 7.4 was used as the transport buffer. Compounds were tested at 2 μM bi-directionally in duplicate. Digoxin, nadolol and metoprolol were included as standards. Digoxin was tested at 10 μM bi-directionally in duplicate, while nadolol and metoprolol were tested at 2 μM in the A to B direction in duplicate. The final DMSO concentration was adjusted to less than 1% for all experiments. The plate was incubated for 2 hours in a CO2 incubator at 37° C., with 5% CO2 at saturated humidity. After incubation, all wells were mixed with acetonitrile containing an internal standard, and the plate was centrifuged at 4,000 rpm for 10 minutes. 100 μL supernatant was collected from each well and diluted with 100 μL distilled water for LC/MS/MS analysis. Concentrations of test and control compounds in starting solution, donor solution, and receiver solution were quantified by LC/MS/MS, using peak area ratio of analyte/internal standard.
The apparent permeability coefficient Papp (cm/s) was calculated using the equation: Papp=(dCr/dt)×Vr/(A×C0), where dCr/dt is the cumulative concentration of compound in the receiver chamber as a function of time (μM/s); Vr is the solution volume in the receiver chamber (0.075 mL on the apical side, 0.25 mL on the basolateral side); A is the surface area for the transport, which is 0.0804 cm^2 for the area of the monolayer; and Co is the initial concentration in the donor chamber (μM). “A” represents a score of 1 or greater, “B” represents a score of 0.2 to 0.99, and “C” represents a score of less than 0.2.
The efflux ratio was calculated using the equation: Efflux Ratio=Papp(BA)/Papp(AB)
Percent recovery was calculated using the equation: % Recovery=100×[(Vr×Cr)+(Vd×Cd)]/(Vd×C0), where Vd is the volume in the donor chambers, which are 0.075 mL on the apical side and 0.25 mL on the basolateral side; and Cd and Cr are the final concentrations of transport compound in donor and receiver chambers, respectively. Measurement of Compound Metabolic Stability

[4] = Measurement of Compound Metabolic Stability in hepatocytes; format: in vitro ADME; conditions: mouse hepatocytes; for hepatocyte CLint at 1 μM: read-out: CLint (μL/min/10^6)
Description: The metabolic stability of compounds was determined in hepatocytes from human, mice and rats. Compounds were diluted to 5 μM in Williams' Medium E from 10 mM stock solutions. 10 μL of each compound was aliquoted into a well of a 96-well plate and reactions were started by aliquoting 40 μL of a 625,000 cells/mL suspension into each well. The plate was incubated at 37° C. with 5% CO2. At each corresponding time point, the reaction was stopped by quenching with ACN containing internal standards (IS) at a 1:3. Plates were shaken at 500 rpm for 10 min, and then centrifuged at 3,220×g for 20 minutes. Supernatants were transferred to another 96-well plate containing a dilution solution. Supernatants were analyzed by LC/MS/MS. The Half-lives (in minutes) and CLint values (in μL/min/10^6 cells) of example compounds, as measured in mouse hepatocytes, are presented in Table 3. […] For CLint, “A” represents greater than 100 μL/min/10^6 cells, “B” represents 50 to 100 μL/min/10^6 cells, and “C” represents less than 50 μL/min/10^6 cells.
The remaining percent of compound after incubation was calculated using the following equation: % Remaining Compound=Peak Area Ratios of Tested Compound vs. Internal Standard at End Point • Peak Area Ratios of Tested Compound vs. Internal Standard at Start Point Compound half-life and CLint were calculated using the following equations: Ct=C0*e^−k*t(first order kinetics); when […], t1/2=ln 2/k=0.693/k; and CLint=k/(1,000,000 cells/mL) Activity-Guided Selection of Inhibitors

[5] = Water solubility of mesylate salt; format: physicochemical; conditions: in water
Description: The freebase of Compound 15 was suspended in water, and methansulfonic acid was added (32 mg in 2 mL water). The resulting solution was gently heated and sonicated until a homogenous solution resulted, which was frozen and concentrated to dryness on the lyophilzer. The oily solid that resulted was re-dissolved in water, frozen and concentrated in the same manner to give a water soluble white solid (˜3 mg/mL). Further experiments were more easily conducted with this salt (32.0 mg, 91% yield over 2 steps).

T1 sequence (O14744 2-637 limits assumed): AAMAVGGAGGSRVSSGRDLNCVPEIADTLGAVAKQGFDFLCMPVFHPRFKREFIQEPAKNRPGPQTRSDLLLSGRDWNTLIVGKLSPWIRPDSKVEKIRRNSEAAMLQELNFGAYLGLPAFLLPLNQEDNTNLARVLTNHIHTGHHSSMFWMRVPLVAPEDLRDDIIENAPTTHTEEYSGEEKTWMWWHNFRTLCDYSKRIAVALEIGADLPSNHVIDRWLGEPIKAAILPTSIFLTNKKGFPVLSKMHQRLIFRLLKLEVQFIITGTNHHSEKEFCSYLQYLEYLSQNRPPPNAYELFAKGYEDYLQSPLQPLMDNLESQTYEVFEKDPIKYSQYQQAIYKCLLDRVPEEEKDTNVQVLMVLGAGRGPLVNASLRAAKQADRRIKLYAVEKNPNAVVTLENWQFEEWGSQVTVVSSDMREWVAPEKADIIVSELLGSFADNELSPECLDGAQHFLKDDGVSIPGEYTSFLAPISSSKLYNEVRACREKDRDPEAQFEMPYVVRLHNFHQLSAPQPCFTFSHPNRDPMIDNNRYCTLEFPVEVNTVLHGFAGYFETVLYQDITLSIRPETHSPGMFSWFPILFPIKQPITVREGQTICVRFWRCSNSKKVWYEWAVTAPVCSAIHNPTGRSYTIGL
T1 sequence (Q9BQA1 2-342 partner limits assumed): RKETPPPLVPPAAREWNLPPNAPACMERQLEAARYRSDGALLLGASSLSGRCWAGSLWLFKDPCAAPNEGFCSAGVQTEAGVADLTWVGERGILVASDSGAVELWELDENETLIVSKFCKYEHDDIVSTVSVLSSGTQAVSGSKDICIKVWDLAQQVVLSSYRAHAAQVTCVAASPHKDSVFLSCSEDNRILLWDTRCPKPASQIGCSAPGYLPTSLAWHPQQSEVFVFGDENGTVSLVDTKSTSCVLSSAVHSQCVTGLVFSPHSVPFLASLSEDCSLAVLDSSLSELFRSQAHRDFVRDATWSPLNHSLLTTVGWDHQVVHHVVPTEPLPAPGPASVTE

| IC50 (PRMT5) | Papp A→B at 2 h, 2 μM [3] | half-life at 1 μM [4] | hepatocyte CLint at 1 μM [4] | solubility [5] | Compound | AvgSens ME (%) [1] | AvgRes ME (%) [2] |
| --- | --- | --- | --- | --- | --- | --- | --- |
| 0.101 to 0.5 µM | < 2 nm/s | – | – | – | Nc1nc2cc(C3C[C@@]4(CN3)C[C@@H](n3ccc5c(N)ncnc53)[C@H](O)[C@@H]4O)ccc2cc1Br (single isomer, unassigned) [Compound 8] | C (a percent of maximum effect of 29% or lower) | C (a percent of maximum effect of 29% or lower) |
| ≤ 0.1 µM | < 2 nm/s | – | – | – | Nc1nc2cc(C3C[C@@]4(CN3)C[C@@H](n3ccc5c(Cl)ncnc53)[C@H](O)[C@@H]4O)ccc2cc1Br (single isomer, unassigned) [Compound 9] | B (a percent of maximum effect of 30% to 59%) | C (a percent of maximum effect of 29% or lower) |
| ≤ 0.1 µM | < 2 nm/s | > 50 min | < 50 µL/min/1e6 cells | ~3 mg/mL | Nc1nc2cc(C3C[C@@]4(CO3)C[C@@H](n3ccc5c(N)ncnc53)[C@H](O)[C@@H]4O)ccc2cc1Br (single isomer, unassigned) [Compound 15] | A (a percent of maximum effect of 60% or greater) | B (a percent of maximum effect of 30% to 59%) |
| ≤ 0.1 µM | 2 to 9.9 nm/s | 15 to 50 min | 50 to 100 µL/min/1e6 cells | – | Nc1nc2cc(C3C[C@@]4(CO3)C[C@@H](n3ccc5c(Cl)ncnc53)[C@H](O)[C@@H]4O)ccc2cc1Br (stereo partly shown) [Compound 17] | A (a percent of maximum effect of 60% or greater) | B (a percent of maximum effect of 30% to 59%) |
| ≤ 0.1 µM | ≥ 10 nm/s | > 50 min | < 50 µL/min/1e6 cells | – | Cc1ncnc2c1ccn2[C@@H]1C[C@@]2(CO[C@@H](c3ccc4cc(Br)c(N)nc4c3)C2)[C@@H](O)[C@H]1O [Compound 19] | A (a percent of maximum effect of 60% or greater) | B (a percent of maximum effect of 30% to 59%) |
| ≤ 0.1 µM | – | < 15 min | > 100 µL/min/1e6 cells | – | Nc1ccc2ccc([C@H]3C[C@@]4(CO3)C[C@@H](n3ccc5c(Cl)ncnc53)[C@H](O)[C@@H]4O)cc2n1 [Compound 20] | A (a percent of maximum effect of 60% or greater) | B (a percent of maximum effect of 30% to 59%) |
| ≤ 0.1 µM | – | < 15 min | > 100 µL/min/1e6 cells | – | Nc1ccc2ccc([C@H]3C[C@@]4(CO3)C[C@@H](n3ccc5cncnc53)[C@H](O)[C@@H]4O)cc2n1 [Compound 21] | A (a percent of maximum effect of 60% or greater) | B (a percent of maximum effect of 30% to 59%) |
| ≤ 0.1 µM | ≥ 10 nm/s | < 15 min | > 100 µL/min/1e6 cells | – | Nc1nc2cc([C@H]3C[C@@]4(CO3)C[C@@H](n3ccc5cncnc53)[C@H](O)[C@@H]4O)ccc2cc1Br [Compound 22] | A (a percent of maximum effect of 60% or greater) | B (a percent of maximum effect of 30% to 59%) |
| ≤ 0.1 µM | 2 to 9.9 nm/s | > 50 min | < 50 µL/min/1e6 cells | – | CNc1ncnc2c1ccn2[C@@H]1C[C@@]2(CO[C@@H](c3ccc4cc(Br)c(N)nc4c3)C2)[C@@H](O)[C@H]1O [Compound 23] | A (a percent of maximum effect of 60% or greater) | B (a percent of maximum effect of 30% to 59%) |
| ≤ 0.1 µM | ≥ 10 nm/s | 15 to 50 min | 50 to 100 µL/min/1e6 cells | – | CCNc1ncnc2c1ccn2[C@@H]1C[C@@]2(CO[C@@H](c3ccc4cc(Br)c(N)nc4c3)C2)[C@@H](O)[C@H]1O [Compound 24] | A (a percent of maximum effect of 60% or greater) | B (a percent of maximum effect of 30% to 59%) |
